In PubChem BioAssay (NCI):
Several values for one entry are separate records, joined by “and”; a condition that tells them apart may be missing. Identical values can stand only once.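 Tested at 5 concentrations; 48 h exposure; 96-well plates; endpoints linearly interpolated, else capped at highest concentration. Abbreviation: GI50, concentration required for 50% inhibition of growth. TGI marks complete inhibition of growth.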

These compounds were tested on XF 498 CNS (assay: inhibition of tumour cell growth, NCI panel, 48 h).
With `CCCCOC(=O)CNC(=O)OC/C=C/C#CC#C/C=C/COC(=O)NCC(=O)OCCCC` the TGI was over 10 µM. With `COc1cccc2c1C(=O)c1c(O)c3c(c(O)c1C2=O)C[C@@](O)(C(=O)CO)C[C@@H]3OC1CC(N)CC(C)O1` (some centres not stated) the GI50 was 0.0251 µM and 0.052 µM and the TGI was 0.144 µM and 0.101 µM. `O=C1c2ccccc2C(=O)N1CCn1ccc(NC(c2ccccc2)(c2ccccc2)c2ccccc2)nc1=O` was tested, and the TGI was 30.3 µM. In the case of `CC(C)(C)NNC(=O)CCn1[nH]c(=O)c(Cl)c(Cl)c1=O`, the TGI is reported as over 100 µM. `CCN(CC)CCCN1CCc2c([nH]c3ccccc23)C1c1cccnc1` (configuration not stated) gave a TGI of over 100 µM. For `Nc1nc(Cl)cc(NCCCCCCCCNc2cc(Cl)nc(N)n2)n1`, the TGI was 13.7 µM. Compound `CC(C)N(C(=O)C12C3C4C1C1C4(C#N)C3C12C#N)C(C)C` (configuration not stated) has a TGI of over 100 µM. For `c1ccc2cc(-c3cc4ccccc4s3)ccc2c1`, the TGI was over 100 µM. With `Cc1ccc(S(=O)(=O)N(C=O)N=C2CCN(Cc3ccccc3)CC2)cc1` the TGI was over 100 µM. `CC(C)C(CCl)NC(=O)c1cccc(C(=O)N[C@H](CCl)C(C)C)n1` (stereo in doubt) gave a TGI of over 100 µM. Work on `CCC(=O)CC(=O)CCC(=O)Nc1cc(C)ccc1C` yielded a TGI of over 100 µM. `O=c1/c(=C/c2ccccc2[N+](=O)[O-])sc2nnc(-c3ccco3)n12` was tested, and the TGI was 34.5 µM. With `COC(=O)C[C@](O)(CCCC(C)(C)O)C(=O)O[C@@H]1C(OC)=C[C@]23CCCN2CCc2cc4c(cc2[C@H]13)OCO4` the TGI was 0.0391 µM. `CC(=O)CCn1ncc(Cl)c(Cl)c1=O` gave a TGI of 35.5 µM. `CN1CC(=O)N2Cc3ccccc3-n3cccc3C2C1` (configuration not stated) showed a TGI of over 100 µM.

The compounds below were run on RXF-631 renal (assay: inhibition of tumour cell growth, NCI panel, 48 h).
For `Clc1ccc2c(c1)[nH]c1c2nc2ccccn21`, the TGI was > 100 µM and 69.2 µM. With `CCOC(=O)c1cnc2c(ccc3[nH]n(C)nc32)c1=O` the TGI was over 100 µM. Compound `NC(=S)N/N=C(\CC1OC(=O)c2ccccc21)c1ccc(Cl)cc1` (configuration not stated) has a TGI of 74.1 µM. `COC(=O)C(C(=O)c1ccccc1)C(C(=O)C(=O)Nc1ccc(OC)cc1OC)C(=O)C(=O)c1ccc(C)cc1` (configuration not stated) showed a TGI of over 100 µM. With `CC1(C)COC(C2(C)C(=O)C=C(c3ccccc3)c3ccccc32)=N1` (configuration not stated) the TGI was over 100 µM. `O=C(Nc1ccn(CCO)c(=O)n1)c1ccccc1` gave a TGI of over 100 µM. Compound `CC12C/C(=C\c3ccccc3)C(=O)C3C1CCCC32` has a TGI of over 100 µM. With `CCCCOC(=O)CNC(=O)OC/C=C/C#CC#C/C=C/COC(=O)NCC(=O)OCCCC` the GI50 was over 100 µM and the TGI was over 100 µM. Compound `COc1cccc2c1C(=O)c1c(O)c3c(c(O)c1C2=O)C[C@@](O)(C(=O)CO)C[C@@H]3OC1CC(N)CC(C)O1` (some centres not stated) has a TGI of 0.9 µM. With `O=C1c2ccccc2C(=O)N1CCn1ccc(NC(c2ccccc2)(c2ccccc2)c2ccccc2)nc1=O` the TGI was 40.4 µM. With `CC(C)(C)NNC(=O)CCn1[nH]c(=O)c(Cl)c(Cl)c1=O` the TGI was over 100 µM. For `CCN(CC)CCCN1CCc2c([nH]c3ccccc23)C1c1cccnc1` (configuration not stated), the TGI was over 100 µM. Compound `CC(C)N(C(=O)C12C3C4C1C1C4(C#N)C3C12C#N)C(C)C` (configuration not stated) has a TGI of over 100 µM. Work on `Cc1ccc(S(=O)(=O)N(C=O)N=C2CCN(Cc3ccccc3)CC2)cc1` yielded a TGI of over 100 µM. Compound `CC(C)C(CCl)NC(=O)c1cccc(C(=O)N[C@H](CCl)C(C)C)n1` (stereo in doubt) has a TGI of over 100 µM. Work on `CN1CC(=O)N2Cc3ccccc3-n3cccc3C2C1` (configuration not stated) yielded a TGI of over 100 µM. `Cc1cn2c(=O)c3ncn(C4OC(CO)C(O)C4O)c3n(C)c2n1` (configuration not stated) showed a TGI of over 100 µM.

Each compound was assayed on DMS 273 small cell lung (assay: inhibition of tumour cell growth, NCI panel, 48 h).
`CCOC(=O)c1cnc2c(ccc3[nH]n(C)nc32)c1=O` showed a TGI of 73.4 µM. In the case of `NC(=S)N/N=C(\CC1OC(=O)c2ccccc21)c1ccc(Cl)cc1` (configuration not stated), the TGI is reported as over 100 µM. `COc1ccc2occ(CCC(=O)O)c2c1` showed a TGI of over 100 µM. `COC(=O)C(C(=O)c1ccccc1)C(C(=O)C(=O)Nc1ccc(OC)cc1OC)C(=O)C(=O)c1ccc(C)cc1` (configuration not stated) was tested, and the TGI was over 100 µM. `O=C(Nc1ccn(CCO)c(=O)n1)c1ccccc1` showed a TGI of over 100 µM. In the case of `CC12C/C(=C\c3ccccc3)C(=O)C3C1CCCC32`, the TGI is reported as over 100 µM. `OC(CC1SCCCS1)c1ccccc1` (configuration not stated) showed a TGI of over 100 µM. `COc1cccc2c1C(=O)c1c(O)c3c(c(O)c1C2=O)C[C@@](O)(C(=O)CO)C[C@@H]3OC1CC(N)CC(C)O1` (some centres not stated) was tested, and the GI50 was 0.0134 µM and 0.0303 µM and the TGI was 0.202 µM and 0.129 µM. `O=C1c2ccccc2C(=O)N1CCn1ccc(NC(c2ccccc2)(c2ccccc2)c2ccccc2)nc1=O` was tested, and the TGI was 36.6 µM. Compound `CC(C)(C)NNC(=O)CCn1[nH]c(=O)c(Cl)c(Cl)c1=O` has a TGI of over 100 µM. In the case of `CN(C)CCNC(=O)c1cccc2ccc(-c3ccc(O)cc3)nc12`, the TGI is reported as 6.07 µM. `CCC12CCCN(Cc3ccccc3)C1c1c(n(C)c3ccccc13)CC2` (configuration not stated) was tested, and the TGI was over 253 µM. With `CCN(CC)CCCN1CCc2c([nH]c3ccccc23)C1c1cccnc1` (configuration not stated) the TGI was over 100 µM. With `Nc1nc(Cl)cc(NCCCCCCCCNc2cc(Cl)nc(N)n2)n1` the TGI was over 100 µM. With `c1ccc2cc(-c3cc4ccccc4s3)ccc2c1` the TGI was over 100 µM. Work on `Cc1ccc(S(=O)(=O)N(C=O)N=C2CCN(Cc3ccccc3)CC2)cc1` yielded a TGI of over 100 µM. `CC(C)C(CCl)NC(=O)c1cccc(C(=O)N[C@H](CCl)C(C)C)n1` (stereo in doubt) showed a TGI of over 100 µM. With `O=c1/c(=C/c2ccccc2[N+](=O)[O-])sc2nnc(-c3ccco3)n12` the TGI was over 100 µM. With `COC(=O)C[C@](O)(CCCC(C)(C)O)C(=O)O[C@@H]1C(OC)=C[C@]23CCCN2CCc2cc4c(cc2[C@H]13)OCO4` the TGI was under 0.0204 µM. For `CC(=O)CCn1ncc(Cl)c(Cl)c1=O`, the TGI was 32 µM. For `CN1CC(=O)N2Cc3ccccc3-n3cccc3C2C1` (configuration not stated), the TGI was over 100 µM. With `Cc1cn2c(=O)c3ncn(C4OC(CO)C(O)C4O)c3n(C)c2n1` (configuration not stated) the TGI was over 100 µM.
